{"source": "patent US8980952B2", "about": "“Methods for treating brain swelling with a compound that blocks a non-selective cation channel” (University of Maryland, Baltimore, priority 2002, dated 2015)", "key": {"[1]": {"tested_on": "native reactive astrocytes (NRAs)", "format": "cell-based, rat"}, "[2]": {"tested_on": "native reactive astrocytes (NRAs)", "experiment": "Current clamp recording of membrane potential, nystatin-perforated patch", "format": "cell-based, rat"}, "[3]": {"tested_on": "native reactive astrocytes (NRAs)", "experiment": "Cell blebbing and swelling after ATP depletion (SEM, phase contrast microscopy)", "format": "cell-based, rat"}, "[4]": {"tested_on": "native reactive astrocytes (NRAs)", "experiment": "Necrotic/apoptotic cell death by propidium iodide and annexin V staining", "format": "cell-based, rat"}, "[5]": {"experiment": "Thromboembolic stroke with tPA reperfusion at 6 hr, hemorrhagic conversion", "format": "in vivo, rat", "details": "24 hr after stroke, co-treated with tPA 10 mg/kg i.v. at 6 hr; loading dose 1.5 μg/kg i.v. plus s.c. pump"}, "[6]": {"experiment": "Thromboembolic (TE) MCA stroke model", "format": "in vivo, rat", "details": "for Infarct volume, percent of hemisphere volume: 75 ng/hr"}, "[7]": {"tested_on": "MMP-9 & MMP-2", "experiment": "Zymography of gelatinase activity of recombinant enzyme and stroke tissue", "format": "biochemical", "details": "glibenclamide 10 μM; MMP inhibitor II 300 nM", "protocol": "Activation of MMP-9 & MMP-2 in stroke tissue was compared to controls. […] Calbiochem). Next, the supernatants underwent a gelatinase purification process with gelatin-Sepharose 4B (Pharmacia), and Zymography was performed on the purified supernatants in sodium dodecyl sulfate gels containing gelatin (Rosenberg, 1994). Dried gels were scanned with a transparency scanner, and images were analyzed by densitometry. The relative lysis of an individual sample was expressed as the integrated density value of its band and divided by the protein content of the sample."}, "[8]": {"experiment": "Rodent model of stroke, glibenclamide vs. saline by subcutaneous mini-pump", "format": "in vivo, rat"}, "[9]": {"tested_on": "gliotic capsule", "details": "for GFAP response / gliotic capsule: glibenclamide 1 μM or diazoxide 10 μM at 0.5 μl/hr × 7 days"}, "[10]": {"tested_on": "SUR1", "experiment": "SUR1 knockdown by antisense oligodeoxynucleotide infusion at gelfoam implantation site", "format": "in vivo, rat", "details": "ODN infused 14 days; vs. scrambled sequence ODN"}, "[11]": {"details": "glibenclamide 1 μM with Na azide 1 mM"}}, "note": "Where “and” joins values, the source holds several entries; their conditions need not be identical. Identical values can stand only once. Entries after “also recorded” stand apart in the source; their conditions may differ. Like-named read-outs stand apart in the source and are kept apart here.", "data": [{"molecule": "Nc1ccncc1", "note": "[4-AP, 4-aminopyridine]", "values": [{"measurement": "Outward current remaining in presence of charybdotoxin", "setting": "[1]", "result": "further blocked"}]}, {"molecule": "[N-]=[N+]=[N-]", "note": "[NaN3, Sodium azide]", "values": [{"measurement": "Em after depolarization", "setting": "[2]", "result": "−4.3±0.9", "unit": "mV"}, {"measurement": "Time to apparent blebbing after exposure", "setting": "[3]", "result": "10 to 15 min and 7 to 10 min"}]}, {"molecule": "CC[N+](CC)(CC)CC.[Cl-]", "note": "[TEA, tetraethylammonium chloride]", "values": [{"measurement": "Block of large outward currents", "setting": "[1]", "result": "partially blocked"}]}, {"molecule": "CC1=NS(=O)(=O)c2cc(Cl)ccc2N1", "note": "[diazoxide]", "values": [{"measurement": "Blebbing with channel opener alone", "setting": "[3]; no ATP depletion", "result": "blebbing occurs even without ATP depletion; also recorded: developed progressive blebbing consistent with cytotoxic edema"}, {"measurement": "Necrotic death by channel opener", "setting": "[4]", "result": "necrotic death can also be induced by diazoxide"}]}, {"molecule": "COc1ccc(Cl)cc1C(=O)NCCc1ccc(S(=O)(=O)NC(=O)NC2CCCCC2)cc1", "note": "[glibenclamide]", "values": [{"measurement": "Reduction of edema with added glucose", "setting": "8 hr after MCAO, supplemental glucose 1 gm/kg i.p. at 4 hr", "result": "just as effective in reducing edema"}, {"measurement": "Rise of water in involved hemisphere", "setting": "8 hr after stroke, saline 3.4%", "result": 2.0, "unit": "%"}, {"measurement": "Rise of water in TTC(+) tissue", "setting": "8 hr after stroke, saline 5.4%", "result": 2.5, "unit": "%"}, {"measurement": "Water in TTC(−) tissue of involved hemisphere", "setting": "8 hr after stroke, saline 78.7±1.0%", "result": "78.6±0.4", "unit": "%"}, {"measurement": "Water content of involved hemisphere", "setting": "8 hr after stroke, saline 81.3±0.5%, control hemisphere 77.9±0.2%", "result": "79.9±0.3", "unit": "%"}, {"measurement": "Water in TTC(+) tissue of involved hemisphere", "setting": "8 hr after stroke, saline 83.4±1.1%", "result": "80.5±0.3", "unit": "%"}, {"measurement": "Serum glucose", "setting": "rat, in vivo", "result": "93 ± 3", "unit": "mg/dL"}, {"measurement": "Mortality during 7 days after MCA stroke", "setting": "rat, in vivo, sc", "result": 24, "unit": "%"}, {"measurement": "Blebbing on NaN3 in presence of glibenclamide", "setting": "[3]; pretreated cells, observed 30 min", "result": "does not cause blebbing; also recorded: remained phase bright with no pathological deterioration"}, {"measurement": "Animals with hemorrhagic conversion", "setting": "[5]", "result": "1 of 6 and ⅕"}, {"measurement": "Infarct volume, percent of hemisphere volume", "setting": "[6]; 2 days after MCAO", "result": "16.7±2.2", "unit": "%"}, {"measurement": "Stroke volume, percent of hemisphere volume", "setting": "[6]; 48 hr after stroke, 10 male rats per group", "result": "15.5±2.3", "unit": "%"}, {"measurement": "Infarct volume, percent of hemisphere volume", "setting": "[6]; 7 days after MCAO", "result": "15.2±1.2", "unit": "%"}, {"measurement": "Stroke volume vs. saline at 48 hr", "setting": "[6]; begun 2 hr after stroke, loading dose 3.3 μg/kg i.p.", "result": "significant reduction in stroke volume"}, {"measurement": "Stroke volume vs. saline at 48 hr", "setting": "[6]; begun 4 hours after MCAO, loading dose 3.3 μg/kg i.p.", "result": "not statistically significant"}, {"measurement": "Stroke volume vs. saline at 48 hr", "setting": "[6]; begun 4 hours after MCAO, loading dose 33.0 μg/kg i.p. with glucose 1 gm/kg", "result": "statistically significant reductions in stroke volume"}, {"measurement": "Stroke volume vs. saline at 48 hr", "setting": "[6]; begun 6 hours after MCAO, loading dose 33.0 μg/kg i.p. with glucose 1 gm/kg", "result": "statistically significant reductions in stroke volume"}, {"measurement": "Stroke volume vs. saline at 48 hr", "setting": "[6]; infusion 75 ng/hr begun immediately after stroke, no loading dose", "result": "significant reduction in stroke volume"}, {"measurement": "annexin V labeling (apoptotic death)", "setting": "[4]; [11]", "result": "not significantly different"}, {"measurement": "number of PI-positive cells (necrotic death)", "setting": "[4]; [11]", "result": "dramatically decreased; also recorded: largely prevented"}, {"measurement": "Gelatinase activity", "setting": "[7]", "result": "did not directly inhibit gelatinase activity"}, {"measurement": "3-day mortality after stroke", "setting": "[8]; rat, in vivo, sc", "result": 28, "unit": "%"}, {"measurement": "Excess water in stroke hemisphere", "setting": "[8]; vs. saline-treated rats, n=5 per group", "result": "only half as much excess water"}, {"measurement": "GFAP response / gliotic capsule", "setting": "[9]", "result": "well defined gliotic capsule"}, {"measurement": "GFAP response / gliotic capsule", "setting": "[9]; listed as Glibenclamide", "result": "reduced the overall injury response"}, {"measurement": "Inflammatory response / PMN infiltration", "setting": "[9]; infusion into site of gelatin sponge", "result": "minimized the inflammatory response"}]}, {"molecule": "OC[C@@H](O)[C@@H](O)[C@H](O)[C@H](O)CO", "note": "[mannitol]", "values": [{"measurement": "Effect on NaN3-induced depolarization", "setting": "[2]; 50 mM mannitol", "result": "neither the time course nor the magnitude of the depolarization is affected"}, {"measurement": "Delay of bleb formation after exposure to NaN3", "setting": "[3]; 50 mM mannitol, 350 mOsm", "result": "> 30", "unit": "min"}]}, {"molecule": "C[C@@H]1O[C@@H](O[C@H]2C[C@@H](O)[C@]3(CO)[C@H]4[C@H](O)C[C@]5(C)[C@@H](C6=CC(=O)OC6)CC[C@]5(O)[C@@H]4CC[C@]3(O)C2)[C@H](O)[C@H](O)[C@H]1O", "note": "[ouabain]", "values": [{"measurement": "Depolarization", "setting": "[2]; 1 mM ouabain", "result": "small reversible depolarization"}]}, {"molecule": "SUR1KD: SUR1 antisense oligodeoxynucleotide 5′-GGCCGAGTGGTTCTCGGT-3′ (SEQ ID NO: 9) (DNA, backbone not given here)", "values": [{"measurement": "Depolarization on application of Na azide", "setting": "[2]", "result": "8.7±1.7", "unit": "mV"}, {"measurement": "SUR1 expression in gliotic capsule (immunoblot)", "setting": "[10]", "result": "significant reduction in SUR1 expression"}, {"measurement": "Membrane blebbing after Na azide", "setting": "[3]; cells from SUR1KD", "result": "not observed"}]}, {"molecule": "charybdotoxin: toxin partially blocking large conductance Ca2+-activated K+ channel currents", "values": [{"measurement": "Block of large outward currents", "setting": "[1]", "result": "partially blocked"}]}, {"molecule": "iberiotoxin: toxin partially blocking large conductance Ca2+-activated K+ channel currents (QFTDVDCSVSKECWSVCKDLFGVDRGKCMGKKCRCYQ)", "values": [{"measurement": "Block of large outward currents", "setting": "[1]", "result": "partially blocked"}]}]}
